Legend:
Type in all cases: biochemical
Btk = target: T1, Btk (Homo sapiens, UniProt Q06187); assay: Btk in vitro inhibitory activity (one of Method A TR-FRET, Method B electrophoretic mobility shift, Method C radiometric filter binding); conditions: wild-type Btk; read-out: Btk-WT IC50
T1 construct: purified from insect cells as a full-length construct containing a N-terminal 6X-His tag; His6 (N); made in house; host or cells: insect cells (Method C)
In short: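 Method A: TR-FRET with 0.5 nM Btk at [ATP]=Km, EDTA-quenched, 665/615 nm ratio; Ki(app) converted to IC50. Method B: 1 nM full-length His6 human BTK, 1 μM FAM peptide, pH 7.5, mobility-shift product/sum ratio, 12-point 4-parameter fit. Method C: radiometric filter binding, 8 nM His-tagged BTK, 0.2 mg/mL poly-Glu-Tyr.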

panel of kinases = target: T2, panel of kinases (Homo sapiens, UniProt P51813); assay: Inhibition of a panel of kinases (in vitro HotSpot kinase assay, 33P-ATP, 1 μM ATP), other kinases; conditions: BMX wild-type, read-out: BMX-WT IC50
T2 sequence (P51813 1-675): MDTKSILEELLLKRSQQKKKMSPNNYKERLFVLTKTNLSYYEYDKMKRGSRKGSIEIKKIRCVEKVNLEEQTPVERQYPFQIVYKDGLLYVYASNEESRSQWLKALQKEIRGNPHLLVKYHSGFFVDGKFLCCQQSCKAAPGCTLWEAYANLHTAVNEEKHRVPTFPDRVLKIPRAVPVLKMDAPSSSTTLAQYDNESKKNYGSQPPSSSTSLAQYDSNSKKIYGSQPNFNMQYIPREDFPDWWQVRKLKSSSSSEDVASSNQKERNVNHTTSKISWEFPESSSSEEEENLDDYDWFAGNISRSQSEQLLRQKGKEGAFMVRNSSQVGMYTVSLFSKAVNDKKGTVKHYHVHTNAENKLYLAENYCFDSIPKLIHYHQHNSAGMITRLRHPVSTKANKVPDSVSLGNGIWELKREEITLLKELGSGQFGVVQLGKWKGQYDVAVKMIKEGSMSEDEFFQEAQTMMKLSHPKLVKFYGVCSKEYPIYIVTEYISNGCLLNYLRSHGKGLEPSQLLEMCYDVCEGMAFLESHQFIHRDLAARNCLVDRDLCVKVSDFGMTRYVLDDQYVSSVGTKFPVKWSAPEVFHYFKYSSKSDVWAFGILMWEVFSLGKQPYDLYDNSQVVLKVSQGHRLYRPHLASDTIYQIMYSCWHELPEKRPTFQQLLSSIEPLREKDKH
Experimental: Example 63: Inhibition of a Panel of Kinases The degree of inhibition of a panel of kinases is determined using the in vitro HotSpot kinase assay (purified enzymes, ^33P-ATP, an appropriate substrate and 1 μM ATP).

TEC = target: T3, TEC (Homo sapiens, UniProt P42680); assay: Inhibition of a panel of kinases (in vitro HotSpot kinase assay, 33P-ATP, 1 μM ATP); conditions: for IC50: HotSpot kinase assay, 1 μM ATP
T3 sequence (P42680 1-631): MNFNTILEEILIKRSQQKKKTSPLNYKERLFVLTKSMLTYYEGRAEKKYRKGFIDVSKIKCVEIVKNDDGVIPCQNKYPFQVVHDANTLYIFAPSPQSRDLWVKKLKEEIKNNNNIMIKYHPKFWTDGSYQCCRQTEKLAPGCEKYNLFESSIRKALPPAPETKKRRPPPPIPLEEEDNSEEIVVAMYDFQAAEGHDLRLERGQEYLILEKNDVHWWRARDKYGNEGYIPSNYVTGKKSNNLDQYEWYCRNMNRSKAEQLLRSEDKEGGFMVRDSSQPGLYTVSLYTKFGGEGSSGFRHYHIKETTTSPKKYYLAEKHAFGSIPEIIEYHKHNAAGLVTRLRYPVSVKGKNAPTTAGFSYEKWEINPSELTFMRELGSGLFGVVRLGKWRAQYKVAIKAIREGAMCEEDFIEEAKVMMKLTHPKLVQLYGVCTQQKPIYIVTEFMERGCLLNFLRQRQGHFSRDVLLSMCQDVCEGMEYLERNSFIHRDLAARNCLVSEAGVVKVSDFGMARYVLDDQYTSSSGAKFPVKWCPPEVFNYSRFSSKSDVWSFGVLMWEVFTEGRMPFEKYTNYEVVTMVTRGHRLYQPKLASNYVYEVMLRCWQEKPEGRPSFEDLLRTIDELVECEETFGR
In short: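 Degree of kinase inhibition is determined in vitro using isolated enzymes, a matched substrate and radiolabelled ATP (1 μM).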

T1 sequence (Q06187 whole entry): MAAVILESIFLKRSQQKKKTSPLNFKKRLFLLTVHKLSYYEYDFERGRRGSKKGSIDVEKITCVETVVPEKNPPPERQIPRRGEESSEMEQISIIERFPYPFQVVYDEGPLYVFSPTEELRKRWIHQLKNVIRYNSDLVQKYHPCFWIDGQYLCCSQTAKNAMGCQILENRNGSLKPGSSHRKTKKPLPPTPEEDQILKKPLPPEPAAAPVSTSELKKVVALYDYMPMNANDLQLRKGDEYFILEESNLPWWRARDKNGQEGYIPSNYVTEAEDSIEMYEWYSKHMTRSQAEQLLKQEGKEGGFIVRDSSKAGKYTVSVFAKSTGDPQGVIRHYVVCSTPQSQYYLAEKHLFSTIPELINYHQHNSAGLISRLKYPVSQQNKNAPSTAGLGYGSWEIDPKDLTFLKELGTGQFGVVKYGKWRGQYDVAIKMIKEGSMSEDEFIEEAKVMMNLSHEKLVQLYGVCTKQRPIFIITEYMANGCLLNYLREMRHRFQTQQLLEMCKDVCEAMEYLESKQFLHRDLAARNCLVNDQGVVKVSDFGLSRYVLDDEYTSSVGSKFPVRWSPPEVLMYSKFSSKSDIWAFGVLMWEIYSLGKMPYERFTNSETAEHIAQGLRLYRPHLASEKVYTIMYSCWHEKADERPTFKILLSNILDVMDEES

IC50 (Btk) | IC50 (panel of kinases) | IC50 (TEC) | TEC/Btk (TEC; ratio of TEC IC50 to Btk IC50 (selectivity)) | Structure (SMILES)
0.0935 µM | 7.86 µM | – | – | CC(C)(C)c1nc(C(=O)NCc2ccc(-c3ccnc4[nH]nc(C5CCNC5)c34)cc2F)no1 (stereo not shown) [Example 278, 5-tert-butyl-N-({2-fluoro-4-[3-(pyrrolidin-3-yl)-1H-pyrazolo[3,4-b]pyridin-4-yl]phenyl}methyl)-1,2,4-oxadiazole-3-carboxamide]
0.625 µM | 5.73 µM | – | – | C[C@@H](NC(=O)c1cc(C(C)(C)O)on1)c1ccc(-c2ccnc3[nH]nc(NC4CCOC4)c23)cc1 (stereo partly drawn) [Example 398, 5-(2-hydroxypropan-2-yl)-N-[(1R)-1-(4-{3-[(oxolan-3-yl)amino]-1H-pyrazolo[3,4-b]pyridin-4-yl}phenyl)ethyl]-1,2-oxazole-3-carboxamide]
0.108 µM | 1.53 µM | – | – | O=C(NCc1ccc(-c2ccnc3[nH]nc(N[C@@H]4CCNC4)c23)cc1F)c1ccc2scnc2c1 [Example 352, (R)-N-[(2-fluoro-4-{3-[(pyrrolidin-3-yl)amino]-1H-pyrazolo[3,4-b]pyridin-4-yl}phenyl)methyl]-1,3-benzothiazole-5-carboxamide]
– | 4.32 µM | 9.27 µM | – | C[C@@H](NC(=O)c1cc(C(C)(C)O)on1)c1ccc(-c2ccnc3[nH]nc(NC4CCCCC4)c23)cc1 [Example 399, N-[(1R)-1-{4-[3-(cyclohexylamino)-1H-pyrazolo[3,4-b]pyridin-4-yl]phenyl}ethyl]-5-(2-hydroxypropan-2-yl)-1,2-oxazole-3-carboxamide]
0.147 µM | 8.43 µM | – | – | CC(C)(C)c1nc(C(=O)NCc2ccc(-c3ccnc4[nH]nc(C[C@H]5CCNC5)c34)cc2F)no1 [Example 274, (R)-5-tert-butyl-N-[(2-fluoro-4-{3-[(pyrrolidin-3-yl)methyl]-1H-pyrazolo[3,4-b]pyridin-4-yl}phenyl)methyl]-1,2,4-oxadiazole-3-carboxamide]
0.677 µM | 9.58 µM | – | – | CC(C)c1cc(C(=O)NCc2ccc(-c3ccnc4[nH]nc(N[C@@H]5CCCN(C(=O)N(C)C)[C@@H]5C)c34)cc2F)no1 [Example 305, (2R,3R)-3-({4-[3-fluoro-4-({[5-(propan-2-yl)-1,2-oxazole-3-carbonyl]amino}methyl)phenyl]-1H-pyrazolo[3,4-b]pyridin-3-yl}amino)-N,N,2-trimethylpiperidine-1-carboxamide]
0.0105 µM | 6.92 µM | – | – | C[C@@H](NC(=O)c1nc(C(C)(C)C)no1)c1ccc(-c2ccnc3[nH]nc(NC4CCN(S(C)(=O)=O)C4)c23)cc1 (stereo partly drawn) [Example 386, 3-tert-butyl-N-{(1R)-1-[4-(3-{[1-(methanesulfonyl)pyrrolidin-3-yl]amino}-1H-pyrazolo[3,4-b]pyridin-4-yl)phenyl]ethyl}-1,2,4-oxadiazole-5-carboxamide]
0.0273 µM | 7.21 µM | – | – | C[C@@H](NC(=O)c1nc(C(C)(C)C)no1)c1ccc(-c2ccnc3[nH]nc(NC4CCN(S(C)(=O)=O)CC4)c23)cc1 [Example 387, 3-tert-butyl-N-{(1R)-1-[4-(3-{[1-(methanesulfonyl)piperidin-4-yl]amino}-1H-pyrazolo[3,4-b]pyridin-4-yl)phenyl]ethyl}-1,2,4-oxadiazole-5-carboxamide]
– | 5.67 µM | – | – | O=C(NCc1ccc(-c2ccnc3[nH]nc(N[C@@H]4CCNC4)c23)cc1F)c1cc(-c2ccccc2)on1 [Example 344, (R)-N-[(2-fluoro-4-{3-[(pyrrolidin-3-yl)amino]-1H-pyrazolo[3,4-b]pyridin-4-yl}phenyl)methyl]-5-phenyl-1,2-oxazole-3-carboxamide]
– | 9.78 µM | – | – | C[C@@H](NC(=O)c1cc(C(C)(C)O)on1)c1ccc(-c2ccnc3[nH]nc(NC4CCS(=O)(=O)CC4)c23)cc1 [Example 385, N-[(1R)-1-(4-{3-[(1,1-dioxo-1λ^6-thian-4-yl)amino]-1H-pyrazolo[3,4-b]pyridin-4-yl}phenyl)ethyl]-5-(2-hydroxypropan-2-yl)-1,2-oxazole-3-carboxamide]
0.0408 µM | 9.08 µM | – | – | C[C@@H](NC(=O)c1noc(C(C)(C)C)n1)c1ccc(-c2ccnc3[nH]nc(C4=CCCN(C(=O)N(C)C)C4)c23)cc1 [Example 254, 5-[4-(4-{(1R)-1-[(5-tert-butyl-1,2,4-oxadiazole-3-carbonyl)amino]ethyl}phenyl)-1H-pyrazolo[3,4-b]pyridin-3-yl]-N,N-dimethyl-3,6-dihydropyridine-1(2H)-carboxamide]
– | 8.66 µM | – | – | C[C@@H]1[C@H](Nc2n[nH]c3nccc(-c4ccc(CNC(=O)c5cc(C(C)(C)O)on5)c(F)c4)c23)CCCN1C(=O)N(C)C [Example 316, (2R,3R)-3-({4-[3-fluoro-4-({[5-(2-hydroxypropan-2-yl)-1,2-oxazole-3-carbonyl]amino}methyl)phenyl]-1H-pyrazolo[3,4-b]pyridin-3-yl}amino)-N,N,2-trimethylpiperidine-1-carboxamide]
0.137 µM | 3.18 µM | – | – | CC(=O)N[C@@H]1CCN(c2n[nH]c3nccc(-c4ccc(CNC(=O)c5nc6c(o5)CCCC6)c(F)c4)c23)C1 [Example 198, N-[(4-{3-[(3R)-3-acetamidopyrrolidin-1-yl]-1H-pyrazolo[3,4-b]pyridin-4-yl}-2-fluorophenyl)methyl]-4,5,6,7-tetrahydro-1,3-benzoxazole-2-carboxamide]
– | 2.58 µM | – | 10 | OCc1ccc(-c2ccnc3[nH]nc(N[C@H]4CC[C@H](O)CC4)c23)cc1F [Compound 11]
– | 3.02 µM | 4.47 µM | – | CC(C)(C)c1ccc(C(=O)NCc2ccc(-c3ccnc4[nH]nc(NC5CCNC5)c34)cn2)cc1 (stereo not shown) [Example 268, 4-tert-butyl-N-[(5-{3-[(pyrrolidin-3-yl)amino]-1H-pyrazolo[3,4-b]pyridin-4-yl}pyridin-2-yl)methyl]benzamide]
– | 5.04 µM | – | – | Cc1c(NC(=O)c2noc(C(C)(C)C)n2)cccc1-c1ccnc2[nH]nc(N[C@@H]3CCNC3)c12 [Example 266, 5-tert-butyl-N-[2-methyl-3-(3-{[(3R)-pyrrolidin-3-yl]amino}-1H-pyrazolo[3,4-b]pyridin-4-yl)phenyl]-1,2,4-oxadiazole-3-carboxamide]
– | 1.72 µM | – | – | CN(C)C(=O)N1CC[C@@H](Nc2n[nH]c3nccc(-c4ccc(CNC(=O)c5cc(Cl)on5)c(F)c4)c23)C1 [Example 343, 5-chloro-N-{[4-(3-{[(3R)-1-(dimethylcarbamoyl)pyrroli-din-3-yl]amino}-1H-pyrazolo[3,4-b]pyridin-4-yl)-2-fluorophenyl]methyl}-1,2-oxazole-3-carboxamide]
– | 5.2 µM | – | – | C[C@@H](NC(=O)c1cc(C(C)(C)O)on1)c1ccc(-c2ccnc3[nH]nc(NC4CCOCC4)c23)cc1 [Example 400, 5-(2-hydroxypropan-2-yl)-N-[(1R)-1-(4-{3-[(oxan-4-yl)amino]-1H-pyrazolo[3,4-b]pyridin-4-yl}phenyl)ethyl]-1,2-oxazole-3-carboxamide]
– | 6.55 µM | – | – | C[C@@H]1[C@H](Nc2n[nH]c3nccc(-c4ccc(CNC(=O)c5cc(C(C)(C)N)on5)c(F)c4)c23)CCCN1C(=O)N(C)C [Example 317, (2R,3R)-3-({4-[4-({[5-(2-aminopropan-2-yl)-1,2-oxazole-3-carbonyl]amino}methyl)-3-fluorophenyl]-1H-pyrazolo[3,4-b]pyridin-3-yl}amino)-N,N,2-trimethylpiperidine-1-carboxamide]

— patent US20180194762A1 (Pharmacyclics LLC, priority 2017, published 2018)
